Experimental data reported in ChEMBL document CHEMBL5303764, “Data for DCP probe BI-3812” (2023).

Columns and labels:
[1] = molecular target: Muscarinic acetylcholine receptor M4 (Homo sapiens, UniProt P08173); test: GPCRScan assay: inhibition of M4; design: radioligand conc. used [nm] 0.3 – 1.0, parental cells stable CHO
[2] = molecular target: B-cell CLL/lymphoma 6 member B protein (Homo sapiens, UniProt Q8N143); test: SPR (BCL6B), Ontario institute for cancer research
[3] = molecular target: 5-hydroxytryptamine receptor 1B (Homo sapiens) (UniProt P28222); test: 5HT1B(H) Eurofins SafetyScreen44 (BI); conditions: filed as antagonist, Compound concentration 10.0 uM
[4] = molecular target: Angiotensin-converting enzyme (Homo sapiens) (UniProt P12821); test: ACE(HU_AMTCH400) Eurofins SafetyScreen44 (BI); conditions: Compound concentration 10.0 uM
[5] = molecular target: Alpha-2A adrenergic receptor (Homo sapiens) (UniProt P08913); test: ALPHA2A/HU Eurofins SafetyScreen44 (BI); conditions: Compound concentration 10.0 uM
[6] = molecular target: Beta-1 adrenergic receptor (Homo sapiens) (UniProt P08588); test: BETA1/HUM Eurofins SafetyScreen44 (BI); conditions: Compound concentration 10.0 uM
[7] = molecular target: Beta-2 adrenergic receptor (Homo sapiens) (UniProt P07550); test: BETA2/HUM Eurofins SafetyScreen44 (BI); conditions: filed as antagonist, Compound concentration 10.0 uM
[8] = molecular target: GABA-A receptor; anion channel (Rattus norvegicus) (UniProt O09028+P15431+P18506+P18508+P19969+P20236+P23574+P23576+P28471+P28473+P30191+P62813+P63079+P63138+Q91ZM7+Q9ES14); test: BZD/CENTR/R Eurofins SafetyScreen44 (BI); assay type: protein-complex assay; conditions: Compound concentration 10.0 uM
[9] = molecular target: Cholecystokinin receptor type A (Homo sapiens) (UniProt P32238); test: CCKA/H Eurofins SafetyScreen44 (BI); conditions: Compound concentration 10.0 uM
[10] = molecular target: Sodium-dependent dopamine transporter (Homo sapiens) (UniProt Q01959); test: DATRANS/HUM Eurofins SafetyScreen44 (BI); conditions: Compound concentration 10.0 uM
[11] = molecular target: Endothelin-1 receptor (Homo sapiens) (UniProt P25101); test: ETA/H Eurofins SafetyScreen44 (BI); conditions: Compound concentration 10.0 uM
[12] = molecular target: Histamine H1 receptor (Homo sapiens) (UniProt P35367); test: H1/PYRIL/HS Eurofins SafetyScreen44 (BI); conditions: Compound concentration 10.0 uM
[13] = molecular target: Histamine H2 receptor (Homo sapiens) (UniProt P25021); test: H2/APT/HS Eurofins SafetyScreen44 (BI); conditions: filed as antagonist, Compound concentration 10.0 uM
[14] = molecular target: Tyrosine-protein kinase Lck (Homo sapiens) (UniProt P06239); test: LCK_CE Eurofins SafetyScreen44 (BI); conditions: Compound concentration 10.0 uM
[15] = molecular target: Mu-type opioid receptor (Homo sapiens) (UniProt P35372); test: MU/H Eurofins SafetyScreen44 (BI); conditions: Compound concentration 10.0 uM
[16] = molecular target: voltage-gated Na+ channel (site 2) (Rattus norvegicus, UniProt F1LQQ7+O08562+O88420+O88457+P04774+P04775+P08104+P15389+P15390+Q62968); test: NA+/SITE2/R Eurofins SafetyScreen44 (BI); assay type: protein assay; conditions: rat brain, probe [3H]batrachotoxinin, compound concentration 10 uM, read-out: % Ctrl
[17] = molecular target: Sodium-dependent noradrenaline transporter (Homo sapiens) (UniProt P23975); test: NEUP/H Eurofins SafetyScreen44 (BI); conditions: Compound concentration 10.0 uM
[18] = molecular target: Neuronal acetylcholine receptor; alpha4/beta2 (Homo sapiens) (UniProt P17787+P43681); test: N_NEURO_A4B2 Eurofins SafetyScreen44 (BI); assay type: protein-complex assay; conditions: filed as agonist, Compound concentration 10.0 uM
[19] = molecular target: cGMP-inhibited 3',5'-cyclic phosphodiesterase 3A (Homo sapiens) (UniProt Q14432); test: PDE3A Eurofins SafetyScreen44 (BI); conditions: Compound concentration 10.0 uM
[20] = molecular target: Tyrosine-protein kinase ITK/TSK (Homo sapiens) (UniProt Q08881); test: ITK Invitrogen Lab (UK) kinase screen (BI); conditions: Compound concentration 1.0 uM
[21] = molecular target: Dual specificity mitogen-activated protein kinase kinase 1 (Homo sapiens) (UniProt Q02750); test: MAP2K1 Invitrogen Lab (UK) kinase screen (BI); conditions: Compound concentration 1.0 uM
[22] = molecular target: Mitogen-activated protein kinase kinase kinase 8 (Homo sapiens) (UniProt P41279); test: MAP3K8 Invitrogen Lab (UK) kinase screen (BI); conditions: Compound concentration 1.0 uM
[23] = molecular target: Mitogen-activated protein kinase 14 (Homo sapiens) (UniProt Q16539); test: MAPK14 Invitrogen Lab (UK) kinase screen (BI); conditions: Compound concentration 1.0 uM
[24] = molecular target: Serine/threonine-protein kinase Nek1 (Homo sapiens) (UniProt Q96PY6); test: NEK1 Invitrogen Lab (UK) kinase screen (BI); conditions: Compound concentration 1.0 uM
[25] = molecular target: BDNF/NT-3 growth factors receptor (Homo sapiens) (UniProt Q16620); test: NTRK2 Invitrogen Lab (UK) kinase screen (BI); conditions: Compound concentration 1.0 uM
[26] = molecular target: cAMP-dependent protein kinase catalytic subunit alpha (Homo sapiens) (UniProt P17612); test: PRKACA Invitrogen Lab (UK) kinase screen (BI); conditions: Compound concentration 1.0 uM
[27] = molecular target: Focal adhesion kinase 1 (Homo sapiens) (UniProt Q05397); test: PTK2 Invitrogen Lab (UK) kinase screen (BI); conditions: Compound concentration 1.0 uM
[28] = molecular target: Proto-oncogene tyrosine-protein kinase receptor Ret (Homo sapiens) (UniProt P07949); test: RET Invitrogen Lab (UK) kinase screen (BI); conditions: Compound concentration 1.0 uM
[29] = molecular target: Rho-associated protein kinase 2 (Homo sapiens) (UniProt O75116); test: ROCK2 Invitrogen Lab (UK) kinase screen (BI); conditions: Compound concentration 1.0 uM
[30] = molecular target: Ribosomal protein S6 kinase alpha-4 (Homo sapiens) (UniProt O75676); test: RPS6KA4 Invitrogen Lab (UK) kinase screen (BI); conditions: Compound concentration 1.0 uM
[31] = molecular target: Ribosomal protein S6 kinase alpha-5 (Homo sapiens) (UniProt O75582); test: RPS6KA5 Invitrogen Lab (UK) kinase screen (BI); conditions: Compound concentration 1.0 uM
[32] = molecular target: Ribosomal protein S6 kinase beta-1 (Homo sapiens) (UniProt P23443); test: RPS6KB1 Invitrogen Lab (UK) kinase screen (BI); conditions: Compound concentration 1.0 uM
[33] = molecular target: SRSF protein kinase 2 (Homo sapiens) (UniProt P78362); test: SRPK2 Invitrogen Lab (UK) kinase screen (BI); conditions: Compound concentration 1.0 uM
[34] = molecular target: 5-hydroxytryptamine receptor 1A (Homo sapiens) (UniProt P08908); conditions: Compound concentration 10.0 uM
[35] = molecular target: 5-hydroxytryptamine receptor 2A (Homo sapiens) (UniProt P28223); conditions: Compound concentration 10.0 uM
[36] = molecular target: Histamine H1 receptor (Homo sapiens) (UniProt P35367); conditions: Compound concentration 10.0 uM
[37] = molecular target: Histamine H2 receptor (Homo sapiens) (UniProt P25021); conditions: Compound concentration 10.0 uM
[38] = molecular target: Alpha-1B adrenergic receptor (Homo sapiens) (UniProt P35368); conditions: Compound concentration 10.0 uM
[39] = molecular target: Beta-3 adrenergic receptor (Homo sapiens) (UniProt P13945); conditions: Compound concentration 10.0 uM
[40] = molecular target: Sigma non-opioid intracellular receptor 1 (Homo sapiens) (UniProt Q99720); conditions: Compound concentration 10.0 uM
[41] = molecular target: 3-phosphoinositide-dependent protein kinase 1 (Homo sapiens) (UniProt O15530); test: PDK1 Invitrogen Lab (UK) kinase screen (BI); conditions: Compound concentration 1.0 uM
3-phosphoinositide-dependent protein kinase 1 (Homo sapiens), sequence (O15530 whole entry, looked up): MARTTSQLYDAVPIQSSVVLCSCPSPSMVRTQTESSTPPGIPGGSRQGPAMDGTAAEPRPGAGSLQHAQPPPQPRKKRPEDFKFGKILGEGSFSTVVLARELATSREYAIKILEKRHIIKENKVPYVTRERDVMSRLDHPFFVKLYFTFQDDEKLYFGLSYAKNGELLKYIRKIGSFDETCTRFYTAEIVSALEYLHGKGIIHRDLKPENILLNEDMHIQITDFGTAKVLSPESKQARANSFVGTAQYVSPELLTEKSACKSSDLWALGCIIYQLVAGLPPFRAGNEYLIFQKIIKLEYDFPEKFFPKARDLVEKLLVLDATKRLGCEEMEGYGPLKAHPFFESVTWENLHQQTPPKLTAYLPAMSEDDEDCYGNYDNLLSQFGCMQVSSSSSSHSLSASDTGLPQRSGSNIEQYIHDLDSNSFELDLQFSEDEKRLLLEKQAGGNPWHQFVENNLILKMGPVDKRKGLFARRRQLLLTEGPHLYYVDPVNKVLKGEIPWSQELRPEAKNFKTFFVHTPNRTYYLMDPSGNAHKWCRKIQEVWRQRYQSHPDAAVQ

Muscarinic acetylcholine receptor M4, sequence (P08173 whole entry): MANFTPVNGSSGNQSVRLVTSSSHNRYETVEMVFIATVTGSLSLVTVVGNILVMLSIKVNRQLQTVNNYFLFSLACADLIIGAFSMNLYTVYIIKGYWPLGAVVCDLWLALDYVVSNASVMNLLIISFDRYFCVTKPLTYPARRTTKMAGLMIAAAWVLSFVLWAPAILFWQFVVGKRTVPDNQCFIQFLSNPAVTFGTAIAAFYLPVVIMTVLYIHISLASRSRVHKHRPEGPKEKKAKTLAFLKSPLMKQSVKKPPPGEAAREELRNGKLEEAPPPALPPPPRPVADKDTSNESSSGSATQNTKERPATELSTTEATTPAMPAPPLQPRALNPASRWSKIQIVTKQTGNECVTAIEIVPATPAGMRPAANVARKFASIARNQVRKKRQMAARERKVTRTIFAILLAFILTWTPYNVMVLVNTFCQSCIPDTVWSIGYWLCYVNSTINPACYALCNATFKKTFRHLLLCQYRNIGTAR
Histamine H2 receptor (Homo sapiens), sequence (P25021 whole entry): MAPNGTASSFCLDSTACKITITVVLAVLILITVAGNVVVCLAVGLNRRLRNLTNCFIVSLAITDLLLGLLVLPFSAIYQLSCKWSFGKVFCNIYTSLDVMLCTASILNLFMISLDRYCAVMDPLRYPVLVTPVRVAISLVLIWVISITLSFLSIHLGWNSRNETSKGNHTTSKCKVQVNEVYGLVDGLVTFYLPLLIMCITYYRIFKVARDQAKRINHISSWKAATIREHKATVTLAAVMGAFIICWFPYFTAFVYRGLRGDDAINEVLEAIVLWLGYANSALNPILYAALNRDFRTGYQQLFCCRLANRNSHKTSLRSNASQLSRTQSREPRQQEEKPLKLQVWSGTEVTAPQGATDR
Histamine H1 receptor (Homo sapiens), sequence (P35367 whole entry): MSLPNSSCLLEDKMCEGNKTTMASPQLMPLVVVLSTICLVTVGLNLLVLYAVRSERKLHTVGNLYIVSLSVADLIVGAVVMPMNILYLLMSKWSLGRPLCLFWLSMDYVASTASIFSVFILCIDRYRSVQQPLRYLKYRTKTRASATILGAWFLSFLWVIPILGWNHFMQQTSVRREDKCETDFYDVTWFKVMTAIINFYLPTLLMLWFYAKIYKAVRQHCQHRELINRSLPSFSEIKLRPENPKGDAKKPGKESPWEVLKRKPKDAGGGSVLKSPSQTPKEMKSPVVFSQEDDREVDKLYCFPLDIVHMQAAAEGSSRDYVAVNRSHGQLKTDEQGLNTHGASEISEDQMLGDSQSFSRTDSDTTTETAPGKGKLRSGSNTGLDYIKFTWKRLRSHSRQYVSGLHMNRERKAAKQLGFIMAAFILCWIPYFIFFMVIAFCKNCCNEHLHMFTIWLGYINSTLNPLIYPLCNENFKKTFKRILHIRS
Alpha-1B adrenergic receptor (Homo sapiens), sequence (P35368 whole entry): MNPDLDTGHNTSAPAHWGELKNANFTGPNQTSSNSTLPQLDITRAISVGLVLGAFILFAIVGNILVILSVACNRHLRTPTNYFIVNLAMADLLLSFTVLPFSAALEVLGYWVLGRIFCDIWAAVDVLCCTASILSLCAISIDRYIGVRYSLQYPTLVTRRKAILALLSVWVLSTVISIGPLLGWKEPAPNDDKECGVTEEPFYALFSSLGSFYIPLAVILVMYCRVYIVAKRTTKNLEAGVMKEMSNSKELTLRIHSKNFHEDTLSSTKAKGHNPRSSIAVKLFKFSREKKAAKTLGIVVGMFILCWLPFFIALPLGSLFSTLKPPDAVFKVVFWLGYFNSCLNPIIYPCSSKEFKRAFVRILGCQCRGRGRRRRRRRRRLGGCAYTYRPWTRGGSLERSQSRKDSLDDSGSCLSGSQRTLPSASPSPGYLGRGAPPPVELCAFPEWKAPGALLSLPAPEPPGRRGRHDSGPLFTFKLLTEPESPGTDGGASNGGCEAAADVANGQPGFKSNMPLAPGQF
5-hydroxytryptamine receptor 2A (Homo sapiens), sequence (P28223 whole entry): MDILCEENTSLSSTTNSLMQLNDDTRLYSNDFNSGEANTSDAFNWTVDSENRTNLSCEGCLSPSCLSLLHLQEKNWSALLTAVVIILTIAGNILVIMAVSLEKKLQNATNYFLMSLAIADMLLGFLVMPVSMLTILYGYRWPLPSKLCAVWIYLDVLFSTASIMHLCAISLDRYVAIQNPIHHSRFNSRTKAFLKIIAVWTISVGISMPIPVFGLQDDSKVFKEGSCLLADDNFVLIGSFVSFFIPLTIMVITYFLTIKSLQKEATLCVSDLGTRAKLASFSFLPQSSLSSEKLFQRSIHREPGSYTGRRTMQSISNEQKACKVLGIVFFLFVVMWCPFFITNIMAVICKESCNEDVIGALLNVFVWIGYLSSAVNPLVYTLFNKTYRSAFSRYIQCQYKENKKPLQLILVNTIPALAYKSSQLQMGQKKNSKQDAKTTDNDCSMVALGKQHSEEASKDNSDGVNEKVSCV
Sigma non-opioid intracellular receptor 1 (Homo sapiens), sequence (Q99720 whole entry): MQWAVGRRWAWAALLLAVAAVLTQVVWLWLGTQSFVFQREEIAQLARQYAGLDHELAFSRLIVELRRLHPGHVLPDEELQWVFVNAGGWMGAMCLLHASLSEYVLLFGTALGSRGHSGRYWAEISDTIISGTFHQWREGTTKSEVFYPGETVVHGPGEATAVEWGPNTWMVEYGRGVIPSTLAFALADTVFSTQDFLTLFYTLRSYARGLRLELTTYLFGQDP
Beta-3 adrenergic receptor (Homo sapiens), sequence (P13945 whole entry, looked up): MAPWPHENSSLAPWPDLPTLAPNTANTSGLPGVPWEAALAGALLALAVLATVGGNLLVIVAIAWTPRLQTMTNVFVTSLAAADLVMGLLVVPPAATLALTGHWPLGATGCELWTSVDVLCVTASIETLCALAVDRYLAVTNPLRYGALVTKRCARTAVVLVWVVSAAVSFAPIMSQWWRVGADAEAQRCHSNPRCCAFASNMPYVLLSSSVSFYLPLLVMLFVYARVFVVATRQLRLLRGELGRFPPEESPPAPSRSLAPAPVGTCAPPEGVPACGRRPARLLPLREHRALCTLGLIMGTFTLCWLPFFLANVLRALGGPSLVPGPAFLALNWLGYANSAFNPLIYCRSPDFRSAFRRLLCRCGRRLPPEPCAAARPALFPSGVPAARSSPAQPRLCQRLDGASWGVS
5-hydroxytryptamine receptor 1A (Homo sapiens), sequence (P08908 whole entry): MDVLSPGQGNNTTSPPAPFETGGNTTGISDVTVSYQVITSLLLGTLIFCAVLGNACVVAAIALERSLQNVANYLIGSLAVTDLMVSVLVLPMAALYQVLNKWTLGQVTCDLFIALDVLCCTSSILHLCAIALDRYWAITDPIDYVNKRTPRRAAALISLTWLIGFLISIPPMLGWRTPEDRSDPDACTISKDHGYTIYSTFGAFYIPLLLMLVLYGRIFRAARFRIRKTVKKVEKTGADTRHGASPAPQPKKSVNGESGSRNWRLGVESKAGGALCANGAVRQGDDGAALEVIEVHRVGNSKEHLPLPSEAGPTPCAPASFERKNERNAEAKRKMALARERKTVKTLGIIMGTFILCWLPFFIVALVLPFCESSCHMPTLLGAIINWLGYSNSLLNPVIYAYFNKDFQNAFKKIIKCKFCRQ
Beta-1 adrenergic receptor (Homo sapiens), sequence (P08588 whole entry, looked up): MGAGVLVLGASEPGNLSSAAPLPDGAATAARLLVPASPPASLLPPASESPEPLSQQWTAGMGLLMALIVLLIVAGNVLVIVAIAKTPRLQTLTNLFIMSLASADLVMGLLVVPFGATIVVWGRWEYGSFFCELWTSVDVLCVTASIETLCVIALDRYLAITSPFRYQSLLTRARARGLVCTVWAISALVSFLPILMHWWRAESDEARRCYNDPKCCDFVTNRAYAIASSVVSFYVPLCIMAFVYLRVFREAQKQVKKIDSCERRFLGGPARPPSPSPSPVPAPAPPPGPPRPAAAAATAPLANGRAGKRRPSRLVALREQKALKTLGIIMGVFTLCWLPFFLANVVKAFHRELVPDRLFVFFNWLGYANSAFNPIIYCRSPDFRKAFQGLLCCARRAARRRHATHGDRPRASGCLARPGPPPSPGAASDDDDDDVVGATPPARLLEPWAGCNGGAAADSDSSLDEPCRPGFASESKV
Alpha-2A adrenergic receptor (Homo sapiens), sequence (P08913 whole entry): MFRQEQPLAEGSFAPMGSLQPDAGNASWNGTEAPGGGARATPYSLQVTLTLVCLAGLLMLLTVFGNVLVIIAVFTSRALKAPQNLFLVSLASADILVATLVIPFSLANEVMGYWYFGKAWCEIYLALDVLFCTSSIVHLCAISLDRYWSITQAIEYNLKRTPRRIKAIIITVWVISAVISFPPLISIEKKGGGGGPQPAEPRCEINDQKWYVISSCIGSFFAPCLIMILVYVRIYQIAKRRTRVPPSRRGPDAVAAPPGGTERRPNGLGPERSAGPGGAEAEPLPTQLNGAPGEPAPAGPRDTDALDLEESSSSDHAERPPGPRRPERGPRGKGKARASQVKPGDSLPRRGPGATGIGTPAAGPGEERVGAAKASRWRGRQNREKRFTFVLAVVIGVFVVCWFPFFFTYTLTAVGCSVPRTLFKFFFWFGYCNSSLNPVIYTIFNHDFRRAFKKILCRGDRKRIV

CNC(=O)COc1cc2cc(Nc3nc(N4CCC(C(=O)N(C)C)CC4)ncc3Cl)cc(OC)c2n(C)c1=O
Ki ([1]; read-out: Ki): 878 nM
Ki ([1]; read-out: pKi (converted)): 851 nM
Kd [2]: 3680 nM (not active)
residual activity [3]: 124%
residual activity [4]: 96%
residual activity [5]: 98%
residual activity [6]: 100%
residual activity [7]: 92%
residual activity [8]: 125%
residual activity [9]: 93%
residual activity [10]: 101%
residual activity [11]: 104%
residual activity [12]: 97%
residual activity [13]: 104%
residual activity [14]: 99%
residual activity [15]: 95%
activity at 10 µM [16]: 84% (not active)
residual activity [17]: 99%
residual activity [18]: 98%
residual activity [19]: 142%
residual activity [20]: 83%
residual activity [21]: 100%
residual activity [22]: 86%
residual activity [23]: 88%
residual activity [24]: 98%
residual activity [25]: 88%
residual activity [26]: 99%
residual activity [27]: 90%
residual activity [28]: 95%
residual activity [29]: 97%
residual activity [30]: 93%
residual activity [31]: 103%
residual activity [32]: 93%
residual activity [33]: 103%
inhibition [34]: 22.9%
inhibition [35]: 7.86%
inhibition [36]: 2.93%
inhibition [37]: 9.74%
inhibition [38]: 9.69%
inhibition [39]: 4.51%
inhibition [40]: 16.8%
residual activity [41]: 83%
